Measurements taken from PubChem BioAssay AID272 (DTP/NCI, 2004).
Several values for one entry are separate records, joined by “and”; a condition that tells them apart may be missing. Equal values may be shown once. Records with an inconclusive call do not appear.

System: Lewis lung carcinoma i.m., BDF1 mice, T/C %
Experiment: NCI In Vivo Anticancer Drug Screen. Data for tumor model Lewis Lung Carcinoma (intramuscular) in B6D2F1 (BDF1) mice
Outline: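 Transplantable tumour model; readout survival or tumour size; value = treated (T) / vehicle control (C).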

[1] = endpoint: median survival time, dose: 6.25 mg/kg/injection, schedule: Q01DX011 (ip), vehicle: saline with Tween-80, higher = longer survival

Nc1nc(=S)c2[nH]cnc2[nH]1
T/C (endpoint: mean tumor weight, dose: 0.12 mg/kg/injection, schedule: Q01DX011 (ip), vehicle: other, higher = larger tumour): 105 % of control
T/C (endpoint: mean tumor weight, dose: 0.25 mg/kg/injection, schedule: Q01DX011 (ip), vehicle: other, higher = larger tumour): 93 % of control
T/C (endpoint: mean tumor weight, dose: 0.5 mg/kg/injection, schedule: Q01DX011 (ip), vehicle: other, higher = larger tumour): 76 % of control
T/C (endpoint: median survival time, dose: 0.12 mg/kg/injection, schedule: Q01DX011 (ip), vehicle: other, higher = longer survival): 97 % of control and 106 % of control
T/C (endpoint: median survival time, dose: 0.25 mg/kg/injection, schedule: Q01DX011 (ip), vehicle: other, higher = longer survival): 116 % of control and 121 % of control
T/C (endpoint: median survival time, dose: 0.5 mg/kg/injection, schedule: Q01DX011 (ip), vehicle: other, higher = longer survival): 116 % of control

CC(SC(C)C(=O)NN)C(=O)NN (configuration not stated)
T/C (endpoint: mean tumor weight (est.), dose: 138.75 mg/kg/injection, schedule: Q01DX011 (ip), vehicle: saline, higher = larger tumour): 80 % of control
T/C (endpoint: mean tumor weight (est.), dose: 277.5 mg/kg/injection, schedule: Q01DX011 (ip), vehicle: saline, higher = larger tumour): 87 % of control
T/C (endpoint: mean tumor weight (est.), dose: 555.0 mg/kg/injection, schedule: Q01DX011 (ip), vehicle: saline, higher = larger tumour): 76 % of control
T/C (endpoint: median survival time, dose: 138.75 mg/kg/injection, schedule: Q01DX011 (ip), vehicle: saline, higher = longer survival): 90 % of control
T/C (endpoint: median survival time, dose: 277.5 mg/kg/injection, schedule: Q01DX011 (ip), vehicle: saline, higher = longer survival): 96 % of control
T/C (endpoint: median survival time, dose: 555.0 mg/kg/injection, schedule: Q01DX011 (ip), vehicle: saline, higher = longer survival): 90 % of control

CC[n+]1ccc(Nc2ccc(NC(=O)c3ccc(Nc4cc[n+](CC)c5ccc(N)cc45)cc3)cc2)cc1
T/C (endpoint: mean tumor weight, dose: 0.12 mg/kg/injection, schedule: Q01DX011 (ip), vehicle: water, higher = larger tumour): 109 % of control
T/C (endpoint: mean tumor weight, dose: 0.25 mg/kg/injection, schedule: Q01DX011 (ip), vehicle: water, higher = larger tumour): 83 % of control
T/C (endpoint: mean tumor weight, dose: 0.5 mg/kg/injection, schedule: Q01DX011 (ip), vehicle: water, higher = larger tumour): 87 % of control
T/C (endpoint: mean tumor weight, dose: 1.0 mg/kg/injection, schedule: Q01DX011 (ip), vehicle: water, higher = larger tumour): 100 % of control
T/C (endpoint: mean tumor weight, dose: 2.0 mg/kg/injection, schedule: Q01DX011 (ip), vehicle: water, higher = larger tumour): 67 % of control
T/C (endpoint: median survival time, dose: 0.12 mg/kg/injection, schedule: Q01DX011 (ip), vehicle: water, higher = longer survival): 88 % of control
T/C (endpoint: median survival time, dose: 0.25 mg/kg/injection, schedule: Q01DX011 (ip), vehicle: water, higher = longer survival): 88 % of control
T/C (endpoint: median survival time, dose: 0.5 mg/kg/injection, schedule: Q01DX011 (ip), vehicle: water, higher = longer survival): 92 % of control
T/C (endpoint: median survival time, dose: 0.88 mg/kg/injection, schedule: Q01DX007 (sc), vehicle: saline, higher = longer survival): 87 % of control
T/C (endpoint: median survival time, dose: 1.0 mg/kg/injection, schedule: Q01DX011 (ip), vehicle: water, higher = longer survival): 104 % of control
T/C (endpoint: median survival time, dose: 1.5 mg/kg/injection, schedule: Q01DX007 (sc), vehicle: saline, higher = longer survival): 110 % of control
T/C (endpoint: median survival time, dose: 2.0 mg/kg/injection, schedule: Q01DX011 (ip), vehicle: water, higher = longer survival): 106 % of control
T/C (endpoint: median survival time, dose: 2.5 mg/kg/injection, schedule: Q01DX007 (sc), vehicle: saline, higher = longer survival): 112 % of control
T/C (endpoint: median survival time, dose: 4.1 mg/kg/injection, schedule: Q01DX007 (sc), vehicle: saline, higher = longer survival): 89 % of control
T/C (endpoint: median survival time, dose: 6.8 mg/kg/injection, schedule: Q01DX007 (sc), vehicle: saline, higher = longer survival): 66 % of control

OC(C1CO1)C(O)C1CO1 (configuration not stated)
T/C (endpoint: median survival time, dose: 1.0 mg/kg/injection, schedule: Q01DX011 (ip), vehicle: saline, higher = longer survival): 110 % of control
T/C (endpoint: median survival time, dose: 2.0 mg/kg/injection, schedule: Q01DX011 (ip), vehicle: saline, higher = longer survival): 108 % of control
T/C (endpoint: median survival time, dose: 3.0 mg/kg/injection, schedule: Q01DX011 (ip), vehicle: saline, higher = longer survival): 114 % of control

Oc1c(Cl)cc(Cl)c2cccnc12
T/C (endpoint: mean tumor weight, dose: 6.25 mg/kg/injection, schedule: Q01DX011 (ip), vehicle: saline with Tween-80, higher = larger tumour): 60 % of control
T/C (endpoint: mean tumor weight, dose: 12.5 mg/kg/injection, schedule: Q01DX011 (ip), vehicle: saline with Tween-80, higher = larger tumour): 19 % of control
T/C [1]: 122 % of control

O=C(CCBr)N1CCN(C(=O)CCBr)CC1
T/C (endpoint: mean tumor weight, dose: 50.0 mg/kg/injection, schedule: Q01DX011 (ip), vehicle: steriod suspending solution, higher = larger tumour): 73 % of control
T/C (endpoint: mean tumor weight, dose: 100.0 mg/kg/injection, schedule: Q01DX011 (ip), vehicle: steriod suspending solution, higher = larger tumour): 73 % of control
T/C (endpoint: mean tumor weight, dose: 200.0 mg/kg/injection, schedule: Q01DX011 (ip), vehicle: steriod suspending solution, higher = larger tumour): 37 % of control

Clc1ccc(C(c2ccccc2Cl)C(Cl)Cl)cc1 (configuration not stated)
T/C (endpoint: median survival time, dose: 50.0 mg/kg/injection, schedule: Q01DX011 (ip), vehicle: Klucel (hydroxypropylcellulose) (HPC), higher = longer survival): 88 % of control
T/C (endpoint: median survival time, dose: 100.0 mg/kg/injection, schedule: Q01DX011 (ip), vehicle: Klucel (hydroxypropylcellulose) (HPC), higher = longer survival): 95 % of control

ClC1=NC(Cl)C(Cl)=N/C1=N\c1ncn[nH]1 (configuration not stated)
T/C (endpoint: median survival time, dose: 4.0 mg/kg/injection, schedule: Q01DX011 (ip), vehicle: saline, higher = longer survival): 108 % of control
T/C (endpoint: median survival time, dose: 8.0 mg/kg/injection, schedule: Q01DX011 (ip), vehicle: saline, higher = longer survival): 91 % of control
T/C (endpoint: median survival time, dose: 16.0 mg/kg/injection, schedule: Q01DX011 (ip), vehicle: saline, higher = longer survival): 92 % of control

Clc1ccc2nc(CBr)cnc2c1
T/C (endpoint: mean tumor weight (est.), dose: 6.25 mg/kg/injection, schedule: Q01DX011 (ip), vehicle: saline with Tween-80, higher = larger tumour): 64 % of control
T/C (endpoint: mean tumor weight (est.), dose: 12.5 mg/kg/injection, schedule: Q01DX011 (ip), vehicle: saline with Tween-80, higher = larger tumour): 77 % of control
T/C (endpoint: mean tumor weight (est.), dose: 25.0 mg/kg/injection, schedule: Q01DX011 (ip), vehicle: saline with Tween-80, higher = larger tumour): 81 % of control
T/C [1]: 105 % of control
T/C (endpoint: median survival time, dose: 12.5 mg/kg/injection, schedule: Q01DX011 (ip), vehicle: saline with Tween-80, higher = longer survival): 105 % of control
T/C (endpoint: median survival time, dose: 25.0 mg/kg/injection, schedule: Q01DX011 (ip), vehicle: saline with Tween-80, higher = longer survival): 103 % of control
